The values below come from patent US20260078119A1, “DEGRADER COMPOUNDS AND USES THEREOF” (Bristol-Myers Squibb Company, priority 2024, published 2026).

The target in one assay is T1, FAK (Homo sapiens, UniProt Q05397).
T1 construct: homozygous knock-in of a HiBiT tag (Promega Corporation, Madison, WI) to the C-terminus of the FAK gene in its natural genomic locus; endogenous in cells; host or cells: JHH-4-FAK-HiBiT clone d01 (CRISPR-Cas9 knock-in at the endogenous locus)
The assay can be described thus: FAK-HiBiT Degradation Assay. The settings on record: for DC50: JHH-4-FAK-HiBiT clone d01 cells, two hours incubation, 10-point dose response, 3-fold dilution starting at 1 μM, Nano-Glo HiBiT luminescence, read-out: FAK HiBiT EC50; for FAK HiBiT Ymin: lower limit of the four parameter fit (value A), Ymax derived using DMSO control, JHH-4-FAK-HiBiT cells, two hours. The class given is cell-based. A digest of the protocol: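 Degradation read out by HiBiT lytic luminescence after 2 h compound exposure (top concentration 1 μM, 3-fold, 10 points) in JHH-4 clone d01 bearing endogenous FAK-HiBiT knock-in. Four-parameter logistic fit gave EC50 and Ymin; DMSO wells defined Ymax.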

The subject of a further assay is CAL-51 cells. The experiment in a line: CAL-51 Cell Proliferation Assay. The class given is cell-based. To be noted: for EC50: Homo sapiens, 120 hours incubation, 10-point dose response, 4-fold dilutions starting at 10 μM, Cell-Titer-Glo, read-out: CAL-51 Prolif EC50; for CAL-51 Prolif Ymin: minimal percent of DMSO control observed in the concentrations tested (Ymin-obs), 120 hours. A digest of the protocol: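 EC50 comes from a four-parameter logistic fit of blank-corrected, DMSO-normalised CellTiter-Glo signal after 120 h growth (37 °C, 350 cells/well, RPMI complete medium). Compounds ran as 10-point 4-fold series starting at 10 μM, duplicate, 0.1% DMSO. Ymin-obs records the minimal percent of DMSO control observed.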

T1 sequence (Q05397 whole entry): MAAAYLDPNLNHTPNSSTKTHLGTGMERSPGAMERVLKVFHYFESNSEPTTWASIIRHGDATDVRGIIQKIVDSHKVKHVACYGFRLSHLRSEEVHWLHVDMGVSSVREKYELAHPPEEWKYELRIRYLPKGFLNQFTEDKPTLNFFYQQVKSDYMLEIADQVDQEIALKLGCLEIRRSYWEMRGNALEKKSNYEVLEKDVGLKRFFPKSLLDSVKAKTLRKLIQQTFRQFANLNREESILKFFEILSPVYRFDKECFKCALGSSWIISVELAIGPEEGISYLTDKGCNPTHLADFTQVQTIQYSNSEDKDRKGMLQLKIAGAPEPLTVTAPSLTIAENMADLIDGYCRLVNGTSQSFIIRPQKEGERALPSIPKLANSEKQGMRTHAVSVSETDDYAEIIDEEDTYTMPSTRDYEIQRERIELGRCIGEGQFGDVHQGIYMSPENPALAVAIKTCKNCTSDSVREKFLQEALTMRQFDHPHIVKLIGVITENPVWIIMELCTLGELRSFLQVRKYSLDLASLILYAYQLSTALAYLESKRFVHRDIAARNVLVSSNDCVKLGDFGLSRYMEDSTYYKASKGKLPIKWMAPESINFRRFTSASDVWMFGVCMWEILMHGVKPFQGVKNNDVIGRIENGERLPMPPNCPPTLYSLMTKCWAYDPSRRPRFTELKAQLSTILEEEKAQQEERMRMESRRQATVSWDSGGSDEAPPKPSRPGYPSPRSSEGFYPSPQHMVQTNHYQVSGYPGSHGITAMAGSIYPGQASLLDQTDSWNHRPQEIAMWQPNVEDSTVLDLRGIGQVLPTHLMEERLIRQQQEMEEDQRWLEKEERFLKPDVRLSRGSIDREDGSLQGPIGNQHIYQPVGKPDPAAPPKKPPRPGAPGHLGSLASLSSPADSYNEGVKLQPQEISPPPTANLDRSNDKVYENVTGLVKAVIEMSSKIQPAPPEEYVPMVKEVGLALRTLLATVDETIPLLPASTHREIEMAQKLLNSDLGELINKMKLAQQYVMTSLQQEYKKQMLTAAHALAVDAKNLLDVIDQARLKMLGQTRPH

Turning to `O=C1CCC(N2Cc3cc(Cn4ncc5c(-c6ncc(Cl)cc6Cl)cc(N6CC(F)C6)nc54)ccc3C2=O)C(=O)N1` (stereo not shown) [Example 35, 3-(5-{[4-(3,5-dichloropyridin-2-yl)-6-(3-fluoroazetidin-1-yl)-1H-pyrazolo[3,4-b]pyridin-1-yl]methyl}-1-oxo-2,3-dihydro-1H-isoindol-2-yl)piperidine-2,6-dione], at FAK, the DC50 was found to be 0.97 nM and the “FAK HiBiT Ymin” value is given as 10.02. In the assay on CAL-51 cells, the EC50 stood at 0.59 nM and the “CAL-51 Prolif Ymin” value is recorded as 21.28.

Turning to `CC(C)(O)c1ccc(-c2cc(N3CCC3)nc3c2cnn3Cc2ccc3c(c2)CN(C2CCC(=O)NC2=O)C3=O)c(Cl)c1` (stereo not shown) [Example 105, 3-(5-{[6-(azetidin-1-yl)-4-[2-chloro-4-(2-hydroxypropan-2-yl)phenyl]-1H-pyrazolo[3,4-b]pyridin-1-yl]methyl}-1-oxo-2,3-dihydro-1H-isoindol-2-yl)piperidine-2,6-dione], on FAK, the DC50 amounted to 35.7 nM and the “FAK HiBiT Ymin” value is 27.68. For the same compound, in the assay with CAL-51 cells, the EC50 was found to be 4.91 nM and the “CAL-51 Prolif Ymin” value was found to be 55.87.

As for `O=C1CC[C@H](N2Cc3cc(Cn4ncc5c(-c6ncc(OC(F)(F)F)cc6Cl)cc(N6CC(F)C6)nc54)ccc3C2=O)C(=O)N1` [Example 7, (S)-3-(5-((4-(3-chloro-5-(trifluoromethoxy)pyridin-2-yl)-6-(3-fluoroazetidin-1-yl)-1H-pyrazolo[3,4-b]pyridin-1-yl)methyl)-1-oxoisoindolin-2-yl)piperidine-2,6-dione], at FAK, the DC50 amounted to 0.57 nM and the “FAK HiBiT Ymin” value came out at 8.83. Moreover, in the assay with CAL-51 cells, the EC50 was determined as 0.36 nM and the “CAL-51 Prolif Ymin” value turned out to be 21.87.

As for `O=C1CCC(N2Cc3cc(Cn4ncc5c(-c6ncccc6Cl)cc(N6CC(F)C6)nc54)ccc3C2=O)C(=O)N1` (stereo not shown) [Example 89, 3-(5-{[4-(3-chloropyridin-2-yl)-6-(3-fluoroazetidin-1-yl)-1H-pyrazolo[3,4-b]pyridin-1-yl]methyl}-1-oxo-2,3-dihydro-1H-isoindol-2-yl)piperidine-2,6-dione], on FAK, the DC50 came to 13.4 nM and the “FAK HiBiT Ymin” value came out at 8.18. In the assay with CAL-51 cells, the EC50 is 6.69 nM and the “CAL-51 Prolif Ymin” value turned out to be 24.94.

On to `O=C1CCC(N2Cc3cc(Cn4ncc5c(-c6ncc(C(F)(F)F)cc6F)cc(N6CC(F)C6)nc54)ccc3C2=O)C(=O)N1` (stereo not shown) [Example 55, 3-[5-({4-[3-fluoro-5-(trifluoromethyl)pyridin-2-yl]-6-(3-fluoroazetidin-1-yl)-1H-pyrazolo[3,4-b]pyridin-1-yl}methyl)-1-oxo-2,3-dihydro-1H-isoindol-2-yl]piperidine-2,6-dione], for which, on FAK, the DC50 stood at 3.13 nM and the “FAK HiBiT Ymin” value is 20.64. In the assay on CAL-51 cells, the EC50 turned out to be 3.19 nM and the “CAL-51 Prolif Ymin” value was 36.41.

On to `O=C1CCC(N2Cc3cc(Cn4ncc5c(-c6ncc(F)cc6F)cc(N6CC(F)C6)nc54)ccc3C2=O)C(=O)N1` (stereo not shown) [Example 65, 3-(5-{[4-(3,5-difluoropyridin-2-yl)-6-(3-fluoroazetidin-1-yl)-1H-pyrazolo[3,4-b]pyridin-1-yl]methyl}-1-oxo-2,3-dihydro-1H-isoindol-2-yl)piperidine-2,6-dione], for which, at FAK, the DC50 came to 4.47 nM and the “FAK HiBiT Ymin” value stood at 17.03. Moreover, in the assay with CAL-51 cells, the EC50 was found to be 1.89 nM and the “CAL-51 Prolif Ymin” value is listed as 36.07.

In the case of `O=C1CCC(N2Cc3cc(Cn4ccc5c(-c6ncc(F)cc6Cl)cc(N6CC(F)C6)nc54)ccc3C2=O)C(=O)N1` (stereo not shown) [Example 17, 3-(5-((4-(3-chloro-5-fluoropyridin-2-yl)-6-(3-fluoroazetidin-1-yl)-1H-pyrrolo[2,3-b]pyridin-1-yl)methyl)-1-oxoisoindolin-2-yl)piperidine-2,6-dione], on FAK, the DC50 was found to be 3.36 nM and the “FAK HiBiT Ymin” value was determined as 7.42. In addition, in the assay on CAL-51 cells, the EC50 was found to be 3.46 nM and the “CAL-51 Prolif Ymin” value was found to be 28.46.

In the case of `CN(c1cc(-c2ncc(C(F)(F)F)cc2Cl)c2cnn(Cc3ccc4c(c3)CN([C@H]3CCC(=O)NC3=O)C4=O)c2n1)[C@H]1C[C@](C)(O)C1` [Example 107, (3S)-3-[5-({4-[3-chloro-5-(trifluoromethyl)pyridin-2-yl]-6-{methyl[(1s,3r)-3-hydroxy-3-methylcyclobutyl]amino}-1H-pyrazolo[3,4-b]pyridin-1-yl}methyl)-1-oxo-2,3-dihydro-1H-isoindol-2-yl]piperidine-2,6-dione], at FAK, the DC50 is 38.3 nM and the “FAK HiBiT Ymin” value turned out to be 18.14. Further, in the assay with CAL-51 cells, the EC50 came out at 8.44 nM and the “CAL-51 Prolif Ymin” value was 44.59.

As for `O=C1CC[C@H](N2Cc3cc(Cn4ncc5c(-c6ncc(C(F)(F)F)cc6Cl)cc(N6CC(O)C6)nc54)ccc3C2=O)C(=O)N1` [Example 113, (3S)-3-[5-({4-[3-chloro-5-(trifluoromethyl)pyridin-2-yl]-6-(3-hydroxyazetidin-1-yl)-1H-pyrazolo[3,4-b]pyridin-1-yl}methyl)-1-oxo-2,3-dihydro-1H-isoindol-2-yl]piperidine-2,6-dione], on FAK, the DC50 was 51.8 nM and the “FAK HiBiT Ymin” value is 21.00. Further, in the assay on CAL-51 cells, the EC50 amounted to 9.28 nM and the “CAL-51 Prolif Ymin” value amounted to 38.05.

For the compound `CCOc1ccc(-c2c(F)c(N3CC[C@](C)(O)C3)nc3c2cnn3Cc2ccc3c(c2)CN([C@H]2CCC(=O)NC2=O)C3=O)c(Cl)c1` [Example 67, (3S)-3-(5-{[4-(2-chloro-4-ethoxyphenyl)-5-fluoro-6-[(3S)-3-hydroxy-3-methylpyrrolidin-1-yl]-1H-pyrazolo[3,4-b]pyridin-1-yl]methyl}-1-oxo-2,3-dihydro-1H-isoindol-2-yl)piperidine-2,6-dione], on FAK, the DC50 was found to be 5.06 nM and the “FAK HiBiT Ymin” value amounted to 9.35. Besides, in the assay on CAL-51 cells, the EC50 was determined as 1.6 nM and the “CAL-51 Prolif Ymin” value came to 28.60.

Regarding `O=C1CC[C@H](N2Cc3nc(Cn4ncc5c(-c6ncc(C(F)(F)F)cc6Cl)cc(N6CC(F)C6)nc54)ccc3C2=O)C(=O)N1` [Example 76, (3S)-3-[2-({4-[3-chloro-5-(trifluoromethyl)pyridin-2-yl]-6-(3-fluoroazetidin-1-yl)-1H-pyrazolo[3,4-b]pyridin-1-yl}methyl)-5-oxo-5H,6H,7H-pyrrolo[3,4-b]pyridin-6-yl]piperidine-2,6-dione], on FAK, the DC50 was 7.97 nM and the “FAK HiBiT Ymin” value is 9.51. In the assay on CAL-51 cells, the EC50 was 6.15 nM and the “CAL-51 Prolif Ymin” value was 34.59.

With `Cc1cnc(-c2cc(N3CC(F)C3)nc3c2cnn3Cc2ccc3c(c2)CN(C2CCC(=O)NC2=O)C3=O)nc1` (stereo not shown) [Example 138, 3-(5-{[6-(3-fluoroazetidin-1-yl)-4-(5-methylpyrimidin-2-yl)-1H-pyrazolo[3,4-b]pyridin-1-yl]methyl}-1-oxo-2,3-dihydro-1H-isoindol-2-yl)piperidine-2,6-dione], at FAK, the DC50 was at least 1000 nM and the “FAK HiBiT Ymin” value was 87.20. Further, in the assay with CAL-51 cells, the EC50 turned out to be 160 nM and the “CAL-51 Prolif Ymin” value amounted to 89.63.

In the case of `O=C1CC[C@H](N2Cc3cc(Cn4ncc5c(-c6ncc(C(F)(F)F)cc6Cl)cc(N6CC[C@H](CCO)C6)nc54)ccc3C2=O)C(=O)N1` [Example 145, (S)-3-(5-((4-(3-chloro-5-(trifluoromethyl)pyridin-2-yl)-6-((R)-3-(2-hydroxyethyl)pyrrolidin-1-yl)-1H-pyrazolo[3,4-b]pyridin-1-yl)methyl)-1-oxoisoindolin-2-yl)piperidine-2,6-dione], at FAK, the DC50 was 51.9 nM and the “FAK HiBiT Ymin” value is on record as 47.34. In the assay on CAL-51 cells, the EC50 came out at 74.8 nM and the “CAL-51 Prolif Ymin” value stood at 66.44.

Regarding `O=C1CCC(N2Cc3cc(Cn4ncc5c(-c6ncc(C(F)(F)F)cc6Cl)cc(N[C@H]6CCOC6)nc54)ccc3C2=O)C(=O)N1` (stereo partly drawn) [Example 132, 3-[5-({4-[3-chloro-5-(trifluoromethyl)pyridin-2-yl]-6-{[(3S)-oxolan-3-yl]amino}-1H-pyrazolo[3,4-b]pyridin-1-yl}methyl)-1-oxo-2,3-dihydro-1H-isoindol-2-yl]piperidine-2,6-dione], at FAK, the DC50 is at least 1000 nM and the “FAK HiBiT Ymin” value came to 89.82. In the assay with CAL-51 cells, the EC50 turned out to be 0.1 nM and the “CAL-51 Prolif Ymin” value amounted to 89.52.

As to `CN(c1cc(-c2ncc(C(F)(F)F)cc2Cl)c2cnn(Cc3ccc4c(c3)CN(C3CCC(=O)NC3=O)C4=O)c2n1)C1CCOCC1` (stereo not shown) [Example 94, 3-[5-({4-[3-chloro-5-(trifluoromethyl)pyridin-2-yl]-6-[methyl(oxan-4-yl)amino]-1H-pyrazolo[3,4-b]pyridin-1-yl}methyl)-1-oxo-2,3-dihydro-1H-isoindol-2-yl]piperidine-2,6-dione], on FAK, the DC50 worked out at 18.3 nM and the “FAK HiBiT Ymin” value worked out at 23.92. In the assay with CAL-51 cells, the EC50 amounted to 5.52 nM and the “CAL-51 Prolif Ymin” value is recorded as 47.74.

For the compound `O=C1CC[C@@H](N2Cc3cc(Cn4ncc5c(-c6ncc(C(F)(F)F)cc6Cl)c(F)c(N6CC(F)C6)nc54)ccc3C2=O)C(=O)N1` (single isomer, unassigned) [Example 78], on FAK, the DC50 worked out at 8.4 nM and the “FAK HiBiT Ymin” value is listed as 5.59. In addition, in the assay with CAL-51 cells, the EC50 came out at 1.76 nM and the “CAL-51 Prolif Ymin” value was 24.33.
